Data from US20060199864A1, “Selection of pH-dependent compounds for in vivo therapy” (priority 2004, published 2006).
Entries after “also recorded” stand apart in the source; their conditions may differ. Where two headings read alike, the source gives them in different places.

Key:
[1] = Locomotor activity of rats (light beam breaks); settings: for effects on locomotor activity: monitored 2 hours after injection; for effects on locomotor activity (positive control): varying doses IP
Method: The Locomotor Activity Index is the total number of beam breaks during the trial divided by 1000.
Locomotor activity was monitored after injection for 2 hours.

[2] = target: T1, NR1/NR2A (Rattus norvegicus, UniProt P35439+Q00959); settings: FIG. 4
Method: Stage V and VI oocytes were surgically removed from the ovaries of large, well-fed and healthy Xenopus laevis anesthetized with 3-amino-benzoic acid ethyl ester (1 gm/l). Clusters of oocytes were incubated with 292 U/ml Worthington (Freehold, N.J.) type IV collagenase or 1.3 mg/ml collagenase (Life Technologies, Gaithersburg, Md.; 17018-029) for 2 hr in Ca2+-free solution comprised of (in mM) 115 NaCl, 2.5 KCl, and 10 HEPES, pH 7.5, with slow agitation to remove the follicular cell layer. Oocytes were then washed extensively in the same solution supplemented with 1.8 mM CaCl2 and maintained in Barth's solution comprised of (in mM): 88 NaCl, 1 KCl, 24 NaHCO3, 10 HEPES, 0.82 MgSO4, 0.33 Ca(NO3)2, and 0.91 CaCl2 and supplemented with 100 ug/ml gentamycin, 40 ug/ml streptomycin, and 50 ug/ml penicillin. Oocytes were manually defolliculated and injected within 24 hr of isolation with 5 ng of NR1 subunit and 10 ng of NR2 subunit in a 50 nl volume, and incubated in Barth's solution at 18° C. for 3-7 d. Glass injection pipettes had tip sizes ranging from 10-20 microns, and were backfilled with mineral oil.
These stock solutions were subsequently diluted to the appropriate concentration range in a working solution comprised of 90 mM NaCl, 3 mM KCl, 5 mM HEPES, 0.5 mM BaCl2, 10 uM EDTA, 100 uM glutamate, 50 uM glycine (pH either 6.9 or 7.6 adjusted with NAOH or HCl as appropriate). […]

[3] = test system: kainate receptors; experiment: Two electrode voltage clamp, Xenopus oocytes injected with kainate receptor subunits; assay type: cell-based; settings: 3 uM coadministered with domoate
Method: (§1) Glutamate or domoate induced current recordings were performed using two electrode voltage clamp, and 3 uM of Compound 93-4 coadministered with agonist (glutamate for AMPA receptors, domoate for kainate receptors).

[4] = target: T2, NR1/NR2B (Rattus norvegicus, UniProt P35439+Q00960); experiment: NMDA receptor mediated currents, NR1/NR2B; assay type: cell-based; settings: 3 uM; NR1/NR2B subunits
T2 construct: expressed in transfected cells

[5] = target: T1, NR1/NR2A; experiment: NMDA receptor mediated currents, NR1/NR2A; assay type: cell-based; set-up: expressed in transfected cells; settings: 3 uM
[6] = target: T3, NR1/NR2D (Rattus norvegicus, UniProt P35439+Q62645); experiment: NMDA receptor mediated currents, NR1/NR2D; assay type: cell-based; settings: 3 uM
T3 construct: expressed in transfected cells

[7] = test system: AMPA receptors; experiment: Two electrode voltage clamp, Xenopus oocytes injected with AMPA receptor subunits; assay type: cell-based; settings: 3 uM coadministered with glutamate
Method: as §1

[8] = Spinal Nerve Ligation (SNL) model, mechanical allodynia (von Frey); assay type: in vivo, Sprague-Dawley rats; settings: for Injured paw - von Frey threshold: mean ± SEM
Method: Animals: Male Sprague-Dawley rats (Hsd:Sprague-Dawley®™SD®™, Harlan, Indianapolis, Ind., U.S.A.) weighing 100±10 g on surgery day and 250±10 g on testing day were housed three per cage. Animals had free access to food and water and were maintained on a 12:12 h light/dark schedule. The animal colony was maintained at 21° C. and 60% humidity. All experiments were conducted in accordance with the International Association for the Study of Pain guidelines and were approved by the University of Minnesota Animal Care and Use Committee.
Drugs and dosing solutions: The drugs were dissolved in 1% v/v DMSO and 66% v/v PEG 400 in distilled water. Compounds were administered by i.p. route.
Induction of chronic neuropathic pain: The Spinal Nerve Ligation (SNL) model (Kim and Chung 1992 Pain 50:355-63.) was used to induce chronic neuropathic pain. The animals were anesthetized with isoflurane, the left […] transverse process was removed, and the L5 and L6 spinal nerves were tightly ligated with 6-0 silk suture. The wound was then closed with internal sutures and external staples. Wound clips were removed 10 days following surgery.
Mechanical allodynia testing: Baseline and post-treatment values for non-noxious mechanical sensitivity were evaluated using 8 Semmes-Weinstein filaments (Stoelting, Wood Dale, Ill., USA) with varying stiffness (0.4, 0.7, 1.2, 2.0, 3.6, 5.5, 8.5, and 15 g) according to the up-down method (Chaplan, Bach et al. 1994 J Neurosci Methods 53: 55-63). Animals were placed on a perforated metallic platform and allowed to acclimate to their surroundings for a minimum of 30 minutes before testing. The mean and standard error of the mean (SEM) were determined for each animal in each treatment group. Since this stimulus is normally not considered painful, significant injury-induced increases in responsiveness in this test are interpreted as a measure of mechanical allodynia.
(§2) Experimental design: von Frey baseline measurements were made 30 minutes and 24 hours prior to drug administration respectively. Additional von Frey measurements were made at 30, 60, 120 and 240 min. The timeline for testing is summarized below. The experimental groups were: ·vehicle (1% DMSO+66% PEG 400 in distilled water, i.p., 4 ml/kg, n=10)·30 mg/kg Compound 93-31 test (i.p., 4 ml/kg, n=10)·100 mg/kg Compound 93-31 test (i.p., 4 ml/kg, n=10)·30 mg/kg Compound 93-97 test (i.p., 4 ml/kg, n=10)·100 mg/kg Compound 93-97 test (i.p., 4 ml/kg, n=10)·100 mg/kg Gabapentin (i.p., 4 ml/kg, n=12) (Total rats: 62). [drawing 42]
Data analysis: Statistical analyses were conducted using Prism™ 4.01 (GraphPad, San Diego, Calif., USA). Mechanical allodynia of the injured paw was determined by comparing values observed in the contralateral and ipsilateral paws within the vehicle group. Stability of vehicle group injured paw values over time was tested using the Friedman two-way analysis of variance by rank. Drug effect was analyzed at each time point by carrying out a Kruskal-Wallis one-way analysis of variance by rank followed by a Dunn's post hoc test.
Testing for mechanical allodynia (von Frey) was initiated 14 days after SNL surgery. Tests were performed on both injured (ipsilateral) and normal (contralateral) paws at baseline (30 minutes before drug administration) and 30, 60, 120 and 240 minutes after a single drug administration.

[9] = Side effects observed in the SNL study; assay type: in vivo, Sprague-Dawley rats
Method: as §2
The side effects observed were writhing and stretching (8 observations). These side effects were most commonly seen for the first few minutes (˜5 minutes) following i.p. drug administration. […] Some side effects were observed while measuring the endpoints. The most common was stretching/writhing which may be a sign of some visceral pain or hypersensitivity. […] It seems likely to be associated with i.p. administration of the vehicle in a subset of animals. This seemed relatively rare, short lived (<5 min), and the magnitude was not large enough to interfere with measurement of the endpoint.

[10] = rats; Dogan et al.; cited from earlier work
[11] = test system: primary cultures of rat cerebral cortex; settings: pH 6.5 vs pH 7.5; Mott et al. 1998; cited from earlier work
[12] = cats; highest dose tested; Gotti et al.; cited from earlier work
[13] = cats and rats; highest dose tested; Gotti et al.; cited from earlier work

T1 sequence (Q00959 23-1464, other chains not shown): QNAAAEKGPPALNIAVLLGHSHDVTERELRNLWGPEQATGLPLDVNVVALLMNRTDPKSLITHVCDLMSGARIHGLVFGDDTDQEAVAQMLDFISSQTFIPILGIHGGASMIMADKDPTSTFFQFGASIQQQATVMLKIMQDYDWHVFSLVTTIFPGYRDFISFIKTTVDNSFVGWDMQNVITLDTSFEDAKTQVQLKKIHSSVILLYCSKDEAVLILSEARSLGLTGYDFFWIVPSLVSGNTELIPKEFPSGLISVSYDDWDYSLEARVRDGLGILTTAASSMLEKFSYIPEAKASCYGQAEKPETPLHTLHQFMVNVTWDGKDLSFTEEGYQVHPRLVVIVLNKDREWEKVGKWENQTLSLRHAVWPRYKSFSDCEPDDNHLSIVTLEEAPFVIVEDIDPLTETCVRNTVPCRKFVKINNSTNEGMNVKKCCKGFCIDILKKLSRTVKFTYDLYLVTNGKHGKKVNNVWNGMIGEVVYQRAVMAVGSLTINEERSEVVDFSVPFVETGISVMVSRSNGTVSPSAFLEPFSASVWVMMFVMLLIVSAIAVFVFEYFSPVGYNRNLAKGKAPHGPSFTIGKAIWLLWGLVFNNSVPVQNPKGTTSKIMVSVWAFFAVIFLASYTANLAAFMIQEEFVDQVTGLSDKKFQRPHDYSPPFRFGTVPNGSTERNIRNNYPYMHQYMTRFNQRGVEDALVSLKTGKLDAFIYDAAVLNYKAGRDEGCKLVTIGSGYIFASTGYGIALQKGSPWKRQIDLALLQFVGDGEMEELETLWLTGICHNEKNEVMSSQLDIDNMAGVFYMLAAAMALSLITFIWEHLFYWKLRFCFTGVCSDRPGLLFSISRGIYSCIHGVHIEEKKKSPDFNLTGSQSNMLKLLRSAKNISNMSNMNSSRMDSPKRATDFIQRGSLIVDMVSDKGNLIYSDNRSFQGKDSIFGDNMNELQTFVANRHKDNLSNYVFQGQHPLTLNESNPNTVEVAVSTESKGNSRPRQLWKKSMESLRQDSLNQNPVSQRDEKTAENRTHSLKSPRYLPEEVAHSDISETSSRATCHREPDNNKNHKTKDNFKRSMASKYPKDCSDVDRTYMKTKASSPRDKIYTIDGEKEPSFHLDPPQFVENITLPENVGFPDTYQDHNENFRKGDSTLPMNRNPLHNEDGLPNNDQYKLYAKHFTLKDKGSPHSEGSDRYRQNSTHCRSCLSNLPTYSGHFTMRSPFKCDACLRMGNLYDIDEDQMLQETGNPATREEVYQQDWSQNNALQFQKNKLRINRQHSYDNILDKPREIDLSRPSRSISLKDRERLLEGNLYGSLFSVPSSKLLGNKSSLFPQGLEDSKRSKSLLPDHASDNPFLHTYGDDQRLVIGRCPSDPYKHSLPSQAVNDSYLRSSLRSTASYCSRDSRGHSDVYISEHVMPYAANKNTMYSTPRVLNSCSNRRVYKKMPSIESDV
T2 sequence (Q00960 27-1482, other chains not shown): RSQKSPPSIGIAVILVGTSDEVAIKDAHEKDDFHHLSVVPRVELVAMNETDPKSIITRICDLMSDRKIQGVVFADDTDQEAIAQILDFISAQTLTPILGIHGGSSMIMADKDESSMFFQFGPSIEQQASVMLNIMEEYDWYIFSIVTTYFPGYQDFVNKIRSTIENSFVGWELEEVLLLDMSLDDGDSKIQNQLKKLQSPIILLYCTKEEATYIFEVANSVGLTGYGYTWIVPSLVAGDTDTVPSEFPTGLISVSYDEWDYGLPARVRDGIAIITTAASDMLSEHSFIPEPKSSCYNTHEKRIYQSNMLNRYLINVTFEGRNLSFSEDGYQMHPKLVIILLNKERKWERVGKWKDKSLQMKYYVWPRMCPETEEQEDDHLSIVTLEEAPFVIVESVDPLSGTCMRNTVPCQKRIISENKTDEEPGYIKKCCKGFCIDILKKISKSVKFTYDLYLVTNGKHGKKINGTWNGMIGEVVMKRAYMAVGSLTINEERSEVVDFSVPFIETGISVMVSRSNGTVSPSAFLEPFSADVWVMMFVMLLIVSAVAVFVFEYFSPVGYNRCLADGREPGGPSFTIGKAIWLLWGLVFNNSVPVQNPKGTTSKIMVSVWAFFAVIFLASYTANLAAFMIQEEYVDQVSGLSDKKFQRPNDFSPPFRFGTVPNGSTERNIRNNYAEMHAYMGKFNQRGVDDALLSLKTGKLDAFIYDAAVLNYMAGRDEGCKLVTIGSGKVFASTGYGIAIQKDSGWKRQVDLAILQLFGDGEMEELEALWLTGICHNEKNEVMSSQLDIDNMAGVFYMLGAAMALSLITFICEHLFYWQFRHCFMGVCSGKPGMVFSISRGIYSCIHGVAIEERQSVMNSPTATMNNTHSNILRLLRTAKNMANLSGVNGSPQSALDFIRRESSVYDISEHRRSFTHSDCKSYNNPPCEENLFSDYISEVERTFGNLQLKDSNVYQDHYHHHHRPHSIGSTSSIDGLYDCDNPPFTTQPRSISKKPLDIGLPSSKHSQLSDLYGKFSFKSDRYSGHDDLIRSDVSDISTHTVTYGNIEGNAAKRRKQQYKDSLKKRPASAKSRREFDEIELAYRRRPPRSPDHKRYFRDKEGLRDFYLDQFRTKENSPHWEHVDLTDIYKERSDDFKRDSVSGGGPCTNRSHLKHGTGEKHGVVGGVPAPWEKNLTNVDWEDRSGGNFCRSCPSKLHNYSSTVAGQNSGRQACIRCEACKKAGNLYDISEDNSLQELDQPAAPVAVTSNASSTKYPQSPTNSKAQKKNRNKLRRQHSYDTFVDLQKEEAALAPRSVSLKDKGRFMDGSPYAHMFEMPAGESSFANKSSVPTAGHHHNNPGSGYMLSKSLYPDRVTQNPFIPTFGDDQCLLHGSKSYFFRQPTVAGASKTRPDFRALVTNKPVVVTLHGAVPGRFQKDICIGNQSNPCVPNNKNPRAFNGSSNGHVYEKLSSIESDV
T3 sequence (Q62645 28-1323, other chains not shown): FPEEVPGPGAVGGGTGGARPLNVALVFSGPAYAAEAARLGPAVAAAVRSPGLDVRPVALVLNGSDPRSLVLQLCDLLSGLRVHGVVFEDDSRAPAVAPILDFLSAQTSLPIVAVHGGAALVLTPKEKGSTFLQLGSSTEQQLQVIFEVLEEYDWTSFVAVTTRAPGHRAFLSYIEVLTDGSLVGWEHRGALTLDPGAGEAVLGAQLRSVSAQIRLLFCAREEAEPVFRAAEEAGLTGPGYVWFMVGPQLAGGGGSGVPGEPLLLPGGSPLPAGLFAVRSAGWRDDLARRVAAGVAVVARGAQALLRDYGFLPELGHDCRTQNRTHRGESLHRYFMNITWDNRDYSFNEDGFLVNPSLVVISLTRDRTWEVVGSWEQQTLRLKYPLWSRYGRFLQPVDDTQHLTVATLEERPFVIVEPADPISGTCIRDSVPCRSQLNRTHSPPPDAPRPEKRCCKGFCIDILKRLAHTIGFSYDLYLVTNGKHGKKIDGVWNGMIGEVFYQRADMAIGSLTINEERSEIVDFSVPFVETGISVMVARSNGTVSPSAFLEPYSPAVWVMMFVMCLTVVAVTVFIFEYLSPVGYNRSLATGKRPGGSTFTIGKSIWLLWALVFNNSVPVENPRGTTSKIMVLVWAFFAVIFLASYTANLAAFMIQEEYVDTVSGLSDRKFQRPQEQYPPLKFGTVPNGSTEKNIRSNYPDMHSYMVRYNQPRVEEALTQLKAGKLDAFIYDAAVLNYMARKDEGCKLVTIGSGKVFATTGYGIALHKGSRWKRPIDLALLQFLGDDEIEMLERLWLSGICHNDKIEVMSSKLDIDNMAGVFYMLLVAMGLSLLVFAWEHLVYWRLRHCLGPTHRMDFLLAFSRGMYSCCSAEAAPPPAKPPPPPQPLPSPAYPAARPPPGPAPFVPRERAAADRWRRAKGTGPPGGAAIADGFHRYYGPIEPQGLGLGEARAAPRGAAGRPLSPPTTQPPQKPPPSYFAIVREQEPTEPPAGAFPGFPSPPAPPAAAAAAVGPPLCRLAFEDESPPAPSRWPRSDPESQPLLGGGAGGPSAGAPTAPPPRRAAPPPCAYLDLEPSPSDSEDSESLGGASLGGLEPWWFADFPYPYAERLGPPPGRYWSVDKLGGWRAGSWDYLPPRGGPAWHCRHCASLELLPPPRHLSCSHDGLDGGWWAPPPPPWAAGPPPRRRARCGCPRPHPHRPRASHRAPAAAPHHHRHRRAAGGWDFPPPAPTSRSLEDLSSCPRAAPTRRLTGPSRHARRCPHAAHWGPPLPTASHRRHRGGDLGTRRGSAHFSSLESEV

C[C@@]12N[C@@H](Cc3ccccc31)c1ccccc12 [(−)MK801, reference compound]
fold less potent than (+)MK801 in causing the induction of locomotor activity ([1]; compared to vehicle injected control animals): at least 10 fold | mean within the shaded area (criteria for improved drug performance) for NR1/NR2A [2]: fall within the shaded area

CS(=O)(=O)Nc1ccc(OC[C@@H](O)CNCCc2ccc(Cl)c(Cl)c2)cc1 [Compound 93-4]
reduction in the agonist induced response [3]: No reduction | effects on locomotor activity ([1]; 3-300 mg/kg IP): no significant effects | inhibiting NMDA receptor mediated currents [4]: effective at inhibiting | inhibiting NMDA receptor mediated currents [5]: not NR1/NR2A | inhibiting NMDA receptor mediated currents [6]: not NR1/NR2A or NR1/NR2D | reduction in the agonist induced response [7]: No reduction

CCN(CCc1ccc(Cl)c(Cl)c1)C[C@H](O)COc1ccc(NS(C)(=O)=O)cc1 [Compound 93-5]
effects on locomotor activity ([1]; 3-300 mg/kg IP): no significant effects

CS(=O)(=O)Nc1ccc(OC[C@@H](O)CN(CCO)CCc2ccc(Cl)c(Cl)c2)cc1 [Compound 93-8]
effects on locomotor activity ([1]; 30-300 mg/kg IP): no significant effects

CCCCN(CCc1ccc(Cl)c(Cl)c1)C[C@H](O)COc1ccc(NS(C)(=O)=O)cc1 [Compound 93-31]
effects on locomotor activity ([1]; 3-300 mg/kg IP): no significant effects | effect on locomotor activity index ([1]; IP, doses up to 300 mg/kg, FIG. 5): no significant effect | analgesic effect, injured paw ([8]; 30 mg/kg i.p., any time point studied): no analgesic effect | Injured paw - von Frey threshold ([8]; 30 mg/kg i.p., 30 min): 1.9 ± 0.3 | Injured paw - von Frey threshold ([8]; 30 mg/kg i.p., 60 min): 1.7 ± 0.1 | Injured paw - von Frey threshold ([8]; 30 mg/kg i.p., 120 min): 0.8 ± 0.2 | Injured paw - von Frey threshold ([8]; 30 mg/kg i.p., 240 min): 1.1 ± 0.3 | Injured paw - von Frey threshold ([8]; 30 mg/kg i.p., Baseline): 2.4 ± 0.4 | analgesia / attenuation of mechanical allodynia, injured paw ([8]; 100 mg/kg i.p.): observable analgesia at 30 and 60 min; also recorded: appeared to attenuate mechanical allodynia; also recorded: attenuated mechanical allodynia | duration of action ([8]; 100 mg/kg i.p.): 60 min | onset ([8]; 100 mg/kg i.p.): 30 min | peak threshold relative to the normal paw ([8]; 100 mg/kg i.p.): approximately half of that seen in the normal paw | Injured paw - von Frey threshold ([8]; 100 mg/kg i.p., 30 min): 9.3 ± 1.5 | Injured paw - von Frey threshold ([8]; 100 mg/kg i.p., 60 min): 8.9 ± 1.7 | Injured paw - von Frey threshold ([8]; 100 mg/kg i.p., 120 min): 1.9 ± 0.3 | Injured paw - von Frey threshold ([8]; 100 mg/kg i.p., 240 min): 0.8 ± 0.2 | Injured paw - von Frey threshold ([8]; 100 mg/kg i.p., Baseline): 1.7 ± 0.3 | effect on von Frey thresholds measured in the normal paw ([8]; 30 and 100 mg/kg i.p.): no effect on the normal paw | ED50 ([8]; Rattus norvegicus, ip, assuming complete reversal may be achieved with higher doses): ~100 mg/kg | Side Effects: stretching/writhing (animals affected/group) ([9]; 30 mg/kg i.p.): 0/10 stretching/writhing

CS(=O)(=O)Nc1ccc(OC[C@H](O)CN(CCc2ccc(Cl)c(Cl)c2)Cc2ccccc2O)cc1 [Compound 93-40]
effects on locomotor activity ([1]; 30 mg/kg IP): no significant effects

CS(=O)(=O)Nc1ccc(OCC(O)CN(CCc2ccc(Cl)c(Cl)c2)Cc2cccc(O)c2)cc1 (stereo not shown) [Compound 93-41]
effects on locomotor activity ([1]; 30-300 mg/kg IP): no significant effects

CC(C)CN(CCc1ccc(Cl)c(Cl)c1)C[C@H](O)COc1ccc(NS(C)(=O)=O)cc1 [Compound 93-97]
Injured paw - von Frey threshold ([8]; 30 mg/kg i.p., 30 min): 1.6 ± 0.3 | Injured paw - von Frey threshold ([8]; 30 mg/kg i.p., 60 min): 1.1 ± 0.1 | Injured paw - von Frey threshold ([8]; 30 mg/kg i.p., 120 min): 0.9 ± 0.1 | Injured paw - von Frey threshold ([8]; 30 mg/kg i.p., 240 min): 1.0 ± 0.2 | Injured paw - von Frey threshold ([8]; 30 mg/kg i.p., Baseline): 1.9 ± 0.2 | Injured paw - von Frey threshold ([8]; 100 mg/kg i.p., 30 min): 1.1 ± 0.2 | Injured paw - von Frey threshold ([8]; 100 mg/kg i.p., 60 min): 1.4 ± 0.3 | Injured paw - von Frey threshold ([8]; 100 mg/kg i.p., 120 min): 1.0 ± 0.1 | Injured paw - von Frey threshold ([8]; 100 mg/kg i.p., 240 min): 0.8 ± 0.2 | Injured paw - von Frey threshold ([8]; 100 mg/kg i.p., Baseline): 1.2 ± 0.1 | effect on von Frey thresholds measured in the normal paw ([8]; 30 and 100 mg/kg i.p.): no effect on normal paw | analgesic effect / attenuation of mechanical allodynia, injured paw ([8]; 30 and 100 mg/kg i.p., any time point studied): no analgesic effect; also recorded: failed to attenuate mechanical allodynia | Side Effects: stretching/writhing (animals affected/group) ([9]; 30 mg/kg i.p.): 2/10 stretching/writhing (for first 5 min)

NCC1(CC(=O)O)CCCCC1 [Gabapentin, reference compound]
Injured paw - von Frey threshold ([8]; 100 mg/kg i.p., 30 min): 6.0 ± 1.1 | Injured paw - von Frey threshold ([8]; 100 mg/kg i.p., 60 min): 11.1 ± 1.5 | Injured paw - von Frey threshold ([8]; 100 mg/kg i.p., 120 min): 13.6 ± 0.9 | Injured paw - von Frey threshold ([8]; 100 mg/kg i.p., 240 min): 6.6 ± 1.3 | Injured paw - von Frey threshold ([8]; 100 mg/kg i.p., Baseline): 1.9 ± 0.2 | Side Effects: stretching/writhing (animals affected/group) ([9]; 100 mg/kg i.p., for first 5 min): 1/10 stretching/writhing (for first 5 min)

CC(C(O)c1ccc(O)cc1)N1CCC(Cc2ccccc2)CC1 (stereo not shown) [Ifenprodil]
decrease in infarct volume [10]: 22% | pH dependence of potency [11]: more potent at lower pH (6.5) than higher pH (7.5) | decrease infarct volume [12]: 42%

OC(CN1CCC(Cc2ccc(F)cc2)CC1)c1ccc(Cl)cc1 (stereo not shown) [SL 82.0715]
decrease in infarct volume [13]: 36-48%

CNC1(c2ccccc2Cl)CCCCC1=O (stereo not shown) [ketamine]
mean within the shaded area (criteria for improved drug performance) for NR1/NR2A [2]: fall within the shaded area

(+)MK801 [reference compound]
effects on locomotor activity (positive control) [1]: stereotypical biphasic effects on locomotor activity | effects on locomotor activity (positive control) ([1]; listed as (+)MK-801): induced locomotor activity at low doses and ataxia at higher doses
